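GI50 is the concentration that inhibits growth by half. At the TGI there is no net growth.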 Residues, ends and D or L forms follow the SMILES beside them. *: point of attachment. Cbz = O=C(OCc1ccccc1)*
Columns and labels:
Assay in all cases: NCI tumour cell line growth inhibition, 384-well format
[1] = system: MDA-MB-435 melanoma
[2] = system: HS 578T breast
[3] = system: HCT-116 colon
[4] = system: SK-MEL-28 melanoma
[5] = system: BT-549 breast
[6] = system: MCF7 breast
[7] = system: SF-268 CNS
[8] = system: M14 melanoma
[9] = system: CCRF-CEM leukemia
[10] = system: KM12 colon
[11] = system: SK-OV-3 ovarian
[12] = system: SF-539 CNS
[13] = system: DU-145 prostate

| Compound | GI50 [1] [nM] | TGI [1] [nM] | GI50 [2] [nM] | TGI [2] [nM] | GI50 [3] [nM] | TGI [3] [nM] | GI50 [4] [nM] | TGI [4] [nM] | GI50 [5] [nM] | TGI [5] [nM] | GI50 [6] [nM] | TGI [6] [nM] | GI50 [7] [nM] | TGI [7] [nM] | GI50 [8] [nM] | TGI [8] [nM] | GI50 [9] [nM] | TGI [9] [nM] | GI50 [10] [nM] | TGI [10] [nM] | other results |
| --- | --- | --- | --- | --- | --- | --- | --- | --- | --- | --- | --- | --- | --- | --- | --- | --- | --- | --- | --- | --- | --- |
| CC(C)C[C@@H](C=O)NC(=O)[C@H](CC(C)C)NC(=O)[C@H](CC(C)C)NC(=O)OCc1ccccc1 (Cbz-Leu-Leu-Leu-aldehyde) | 176 | 321 | 121 | 246 | 146 | 296 | 142 | 280 | 164 | 305 | 99.1 | 603 | 166 | 313 | 179 | 324 | 114 | 239 | 178 | 326 | GI50 [11]: 220 nM; TGI [11]: 538 nM; GI50 [12]: 167 nM; TGI [12]: 307 nM; GI50 [13]: 212 nM; TGI [13]: 506 nM |
| Cc1[nH]nc2ncc(C(=O)N3CCC[C@H]3c3ccc(Cl)cc3)cc12 | > 100000 | > 100000 | 41400 | > 100000 | 37200 | > 100000 | > 100000 | > 100000 | 57700 | > 100000 | 31800 | > 100000 | > 100000 | > 100000 | > 100000 | > 100000 | 15600 | 30600 | 31500 | > 85100 | GI50 [11]: > 100000 nM; TGI [11]: > 100000 nM; GI50 [12]: > 91400 nM; TGI [12]: > 100000 nM; GI50 [13]: > 100000 nM; TGI [13]: > 100000 nM |

— PubChem BioAssay (NCI)
